Reference: patent US8378104B2 (OSI Pharmaceuticals, LLC, priority 2010, dated 2013)
Where a name gives a salt, the structure may show the parent alone.

How the values were obtained:
[1] = test system: pJNK in HCT-116 cells; assay: Phospho-JNK (Thr183/Tyr185) Meso Scale ELISA assay, TNFα-stimulated HCT-116 cells; type: cell-based; conditions: Homo sapiens, read-out: mean HCT-116 pJNK ELISA IC50 (Col. B)
Method: Detailed below are ELISA assays for pJNK and p38, and a TAK1 biochemical assay. […] In Table 1, Col.
Phospho-JNK (Thr183/Tyr185) Meso Scale ELISA Assay
• 1. Plate HCT-116 cells at 25,000 per well in 100 uL in 96 well clear dishes in normal growth medium. Day 2: • 1. Aspirate medium and replace with 90 μl reduced serum growth medium (1% FCS), incubate for 2 hours at 37° C. • 2. Make drugs at 10× in reduced serum medium and add 10 uL per well. • 3. Incubate at 37° C. for 4 hrs. • 4. Bring capture plates to room temperature. • 5. Block with 150 μl Blocking Solution (provided with kit) (600 mg Blocker A into 20 mL 1× Wash Buffer per plate) at room temperature with shaking. • 6. Wash plates 4× with 200 μl 1× wash buffer (10× provided with kit) before transferring lysates. • 7. Dilute TNFα to […] in reduced serum medium (this makes a 10× working stock). • 8. Add 10 μl TNFα to all wells except negative control wells, final concentration is 10 ng/mL. • 9. Incubate at 37° C. for 10 minutes. • 10. Remove medium by flicking into sink • 11. Wash cells with 100 uL ice cold PBS. • 12. Remove PBS by flicking into sink and patting on paper towels. • 13. Lyse cells in 50 μl ice cold 1× Complete Lysis Buffer plus Phosphatase and Protease inhibitors (all provided with kit) (10 mL Tris Lysis Buffer+200 μl Protease inhibitor solution+100 μl Phosphatase inhibitor I+100 μl Phosphatase inhibitor II). • 14. Incubate with shaking at 4° C. for 30 minutes. • 15. Transfer 45 μl to capture plate, cover with adhesive cover, and incubate at 4° C. over night with shaking. • Day 3: • 1. Wash plates 4× with 200 μl 1× wash buffer (10× provided with kit). • 2. […] Incubate at room temperature with shaking for 1 hour. • 4. Wash 4× with 200 μl 1× Wash Buffer. • 5. […] Read on Sector Imager. Phospho-p38 Meso Scale ELISA Assay Day 1: • 1. Plate HCT-116 cells at 25,000 per well in 100 uL in 96 well clear dishes in normal growth medium. zday 2: • 1. Aspirate medium and replace with 90 μl reduced serum growth medium (1% FCS), incubate for 2 hours at 37° C. • 2. Make drugs at 10× in reduced serum medium and add 10 uL per well. • 3. Incubate at 37° C. for 4 hrs. • 4. Bring capture plates to room temperature. • 5. Block with 150 μl Blocking Solution (provided with kit) (600 mg Blocker A into 20 mL 1× Wash Buffer per plate) at room temperature with shaking. • 6. Wash plates 4× with 200 μl 1× wash buffer (10× provided with kit) before transferring lysates. • 7. Dilute TNFα to […] in reduced serum medium (this makes a 10× working stock). • 8. Add 10 μl TNFα to all wells except negative control wells, final concentration is 10 ng/mL. • 9. Incubate at 37° C. for 10 minutes. • 10. Remove medium by flicking into sink • 11. Wash cells with 100 uL ice cold PBS. • 12. Remove PBS by flicking into sink and patting on paper towels. • 13. Lyse cells in 50 μl ice cold 1× Complete Lysis Buffer plus phosphatase and protease inhibitors (all provided with kit) (10 mL Tris Lysis Buffer+200 μl Protease inhibitor solution+100 μl Phosphatase inhibitor I+100 μl Phosphatase inhibitor II). • 14. Incubate with shaking at 4° C. for 30 minutes. • 15. Dilute lysates before transferring to capture plate with 100 μl Complete p38 Lysate • Dilution Buffer (provided with kit) (10 mL of Diluent 20±200 μl Protease inhibitor solution+100 μl Phosphatase inhibitor I+100 μl Phosphatase inhibitor II). • 16. Transfer 50 μl of diluted lysates to capture plate, cover with adhesive cover, and incubate at 4° C. over night with shaking. Day 3: • 1. Wash plates 4× with 200 μl 1× wash buffer (10× provided with kit). • 2. […] Incubate at room temperature with shaking for 1 hour. • 4. Wash 4× with 200 μl 1× Wash Buffer. • 5. […] Read on Sector Imager. TAK1 Biochemical Assay

[2] = target: T1, TAK1-TAB1 fusion protein (Homo sapiens, UniProt O43318); assay: TAK1 biochemical assay (AlphaScreen, GST-MAP2K7 substrate); conditions: TAK1-TAB1 fusion protein, GST-MAP2K7 substrate; read-out: mean TAK1 IC50 (Col. A)
T1 construct: purchased Carna
T1 sequence (O43318 with tags, fused parts or gaps limits assumed): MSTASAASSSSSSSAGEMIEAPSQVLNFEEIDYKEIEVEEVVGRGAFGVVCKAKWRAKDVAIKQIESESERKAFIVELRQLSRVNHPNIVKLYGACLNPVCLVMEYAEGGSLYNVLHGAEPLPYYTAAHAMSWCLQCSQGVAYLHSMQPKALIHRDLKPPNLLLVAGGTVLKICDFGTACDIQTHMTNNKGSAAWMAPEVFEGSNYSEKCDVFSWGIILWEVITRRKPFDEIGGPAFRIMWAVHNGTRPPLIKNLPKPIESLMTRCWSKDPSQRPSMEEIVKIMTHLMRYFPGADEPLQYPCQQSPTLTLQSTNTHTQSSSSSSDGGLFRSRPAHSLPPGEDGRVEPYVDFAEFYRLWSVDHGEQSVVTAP

IC50 [1] [nM]	IC50 [2] [nM]	Structure (SMILES)
100 to 1000	< 100	Nc1ncc(-c2cnn([C@@H]3CCC[C@@H](O)C3)c2)c2cc(-c3cccc4cnsc34)oc12 (relative stereo) [Example 313, trans-3-[4-(7-amino-2-benzo[d]isothiazol-7-yl-furo[2,3-c]pyridin-4-yl)-pyrazol-1-yl]-cyclohexanol]
100 to 1000	< 100	CC(=O)N1CCC(n2cc(-c3cnc(N)c4oc(-c5c(F)ccc6nnsc56)cc34)cn2)CC1 [Example 273, 1-(4-{4-[7-amino-2-(6-fluoro-1,2,3-benzothiadiazol-7-yl)furo[2,3-c]pyridin-4-yl]-1H-pyrazol-1-yl}piperidin-1-yl)ethanone]
< 100	< 100	Nc1ncc(-c2cnn([C@H]3CC[C@H](O)CC3)c2)c2cc(-c3cccc4ncsc34)oc12 [Example 231, trans-4-{4-[7-amino-2-(1,3-benzothiazol-7-yl)furo[2,3-c]pyridin-4-yl]-1H-pyrazol-1-yl}cyclohexanol diformate salt]
< 100	< 100	CC(=O)N1CCC(n2cc(-c3cnc(N)c4oc(-c5cccc6sncc56)cc34)cn2)CC1 [Example 241, 1-(4-{4-[7-amino-2-(1,2-benzothiazol-4-yl)furo[2,3-c]pyridin-4-yl]-1H-pyrazol-1-yl}piperidin-1-yl)ethanone diformate Salt]
100 to 1000	< 100	CC(=O)N1CCC(n2cc(-c3cnc(N)c4oc(-c5csc6cnncc56)cc34)cn2)CC1 [Example 261, 1-(4-{4-[7-amino-2-(thieno[2,3-d]pyridazin-3-yl)furo[2,3-c]pyridin-4-yl]-1H-pyrazol-1-yl}piperidin-1-yl)ethanone diformate]
100 to 1000	100 to 1000	CC(=O)N1CCC(n2cc(-c3cnc(N)c4oc(-c5csc6cnc(Cl)cc56)cc34)cn2)CC1 [Example 246, 1-(4-{4-[7-amino-2-(5-chlorothieno[2,3-c]pyridin-3-yl)furo[2,3-c]pyridin-4-yl]-1H-pyrazol-1-yl}piperidin-1-yl)ethanone bis(trifluoroacetate)]
< 100	< 100	CCNc1nc2cccc(-c3cc4c(-c5cnn(C6CCN(C(C)=O)CC6)c5)cnc(N)c4o3)c2s1 [Example 354, 1-[4-(4-{7-amino-2-[2-(ethylamino)-1,3-benzothiazol-7-yl]furo[2,3-d]pyridin-4-yl}-1H-pyrazol-1-yl)piperidin-1-yl]ethanone trifluoroacetate]
100 to 1000	100 to 1000	Nc1ncc(-c2cnn([C@H]3CC[C@H](O)CC3)c2)c2cc(-c3ccccc3)oc12 [Example 368, trans-4-[4-(7-amino-2-phenylfuro[2,3-c]pyridin-4-yl)-1H-pyrazol-1-yl]cyclohexanol]
100 to 1000	< 100	Nc1ncc(-c2cnn([C@H]3CC[C@H](O)C3)c2)c2cc(-c3csc4cnccc34)oc12 [Example 307, (1S,3S)-3-[4-(7-amino-2-thieno[2,3-c]pyridin-3-yl-furo[2,3-c]pyridin-4-yl)-pyrazol-1-yl]-cyclopentanol]
	> 10000	CC(=O)Nc1ccccc1-c1cc2c(-c3cnn(C4CCN(C(C)=O)CC4)c3)cnc(N)c2o1 [Example 141, N-(2-{4-[1-(1-acetylpiperidin-4-yl)-1H-pyrazol-4-yl]-7-aminofuro[2,3-c]pyridin-2-yl}phenyl)acetamide]

The remaining lines, values behind:

Structure (SMILES)	IC50 [1] [nM]	IC50 [2] [nM]
Cc1cc(-c2cc3c(-c4cnn([C@H]5CC[C@H](O)CC5)c4)cnc(N)c3o2)c2snnc2c1 [Example 373, trans-4-{4-[7-amino-2-(5-methyl-1,2,3-benzothiadiazol-7-yl)furo[2,3-c]pyridin-4-yl]-1H-pyrazol-1-yl}cyclohexanol]	< 100	< 100
[2H]C([2H])([2H])Nc1ncc(-c2cnn([C@H]3CC[C@H](O)CC3)c2)c2cc(-c3cccc4nnsc34)oc12 [Example 361, trans-4-(4-{2-(1,2,3-benzothiadiazol-7-yl)-7-[(^2H3)methylamino]furo[2,3-c]pyridin-4-yl}-1H-pyrazol-1-yl)cyclohexanol]	< 100	< 100
COCCCn1cc(-c2cnc(N)c3oc(-c4csc5cnccc45)cc23)cn1 [Example 342, 4-[1-(3-methoxy-propyl)-1H-pyrazol-4-yl]-2-thieno[2,3-c]pyridin-3-yl-furo[2,3-c]pyridin-7-ylamine]	100 to 1000	100 to 1000
CNc1ncc(-c2cnn([C@H]3CC[C@H](O)CC3)c2)c2cc(-c3csc4cnc(F)cc34)oc12 [Example 283, trans-4-{4-[2-(5-fluorothieno[2,3-c]pyridin-3-yl)-7-(methylamino)furo[2,3-c]pyridin-4-yl]-1H-pyrazol-1-yl}cyclohexanol]	< 100	< 100
Nc1ncc(-c2ccoc2)c2cc(-c3csc4cnccc34)oc12 [Example 392, 4-(furan-3-yl)-2-(thieno[2,3-c]pyridin-3-yl)furo[2,3-c]pyridin-7-amine trifluoroacetate]	1000 to 10000	100 to 1000
Cc1ncc(-c2cnc(N)c3oc(-c4csc5cnccc45)cc23)s1 [Example 388, 4-(2-methyl-1,3-thiazol-5-yl)-2-(thieno[2,3-c]pyridin-3-yl)furo[2,3-c]pyridin-7-amine trifluoroacetate]	100 to 1000	100 to 1000
Nc1ncc(-c2cnn([C@@H]3C[C@H]4CC[C@@H](C3)N4)c2)c2cc(-c3cccc4cnsc34)oc12 [Example 321, 4-{1-[(3-exo)-8-azabicyclo[3.2.1]oct-3-yl]-1H-pyrazol-4-yl}-2-(1,2-benzisothiazol-7-yl)furo[2,3-c]pyridin-7-amine]	100 to 1000	< 100
N#Cc1sc2cnccc2c1-c1cc2c(-c3cnn([C@H]4CC[C@H](O)CC4)c3)cnc(N)c2o1 [Example 270, 3-{7-amino-4-[1-(trans-4-hydroxycyclohexyl)-1H-pyrazol-4-yl]furo[2,3-c]pyridin-2-yl}thieno[2,3-c]pyridine-2-carbonitrile trifluoroacetate]	< 100	100 to 1000
CC(=O)N1[C@@H]2CC[C@H]1C[C@H](n1cc(-c3cnc(N)c4oc(-c5csc6cnccc56)cc34)cn1)C2 [Example 325, 1-[(3-exo)-3-{4-[7-amino-2-(thieno[2,3-c]pyridin-3-yl)furo[2,3-c]pyridin-4-yl]-1H-pyrazol-1-yl}-8-azabicyclo[3.2.1]oct-8-yl]ethanone]	< 100	< 100
